Activity calls are given as the source filed them. The rule behind the calls is not given here.

Assay [1] relates to Pseudomonas aeruginosa. As to the kind of experiment: Growth inhibition of Pseudomonas aeruginosa PAO1 assessed as survival rate at 0.017 ug/mL after 20 hrs. Format: functional. The settings on record: PAO1, 20 h.
In assay [2] the test system is Pseudomonas aeruginosa. The assay is described as follows: Growth inhibition of Pseudomonas aeruginosa PAO1 assessed as survival rate at 3.75 ug/mL after 20 hrs. The settings on record: PAO1, 20 h. It counts as functional.
Assay [3] relates to Pseudomonas aeruginosa. The assay is described as follows: Antibacterial activity against Pseudomonas aeruginosa at 0.05 mg/disk after 25 hrs. Format: functional.
Assay [4] has as its system Escherichia coli. As to the kind of experiment: Antibacterial activity against Escherichia coli at 0.05 mg/disk after 25 hrs. Format: functional.
The subject of assay [5] is Bacillus subtilis. As to the kind of experiment: Antibacterial activity against Bacillus subtilis at 0.05 mg/disk after 25 hrs. It counts as functional.
Assay [6] concerns Candida albicans. As to the kind of experiment: Antifungal activity against Candida albicans at 0.05 mg/disk after 25 hrs. Format: functional, organism-based.
In assay [7] the test system is Staphylococcus aureus. The assay is described as follows: Antibacterial activity against Staphylococcus aureus at 0.05 mg/disk after 25 hrs. It counts as functional.
For assay [8], the system named is Staphylococcus aureus. As to the kind of experiment: Antibacterial activity against methicillin-resistant Staphylococcus aureus 5676 at 0.05 mg/disk after 25 hrs. Format: functional.
Assay [9] deals with Staphylococcus aureus. As to the kind of experiment: Antibacterial activity against methicillin-resistant Staphylococcus aureus 5677 at 0.05 mg/disk after 25 hrs. Format: functional.
Assay [10] deals with Pseudomonas aeruginosa. As to the kind of experiment: Inhibition of Pseudomonas aeruginosa PAO1 quorum sensing assessed as inhibition of pycocyanin production at 0.1 mM after 18 hrs. It counts as functional, organism-based.
Assay [11] has as its system Pseudomonas aeruginosa PAO1. The assay is described as follows: Inhibition of Pseudomonas aeruginosa PAO1 quorum sensing assessed as inhibition of pycocyanin production at 1 mM after 18 hrs.
The subject of assay [12] is Pseudomonas aeruginosa PAO1. The assay is described as follows: Inhibition of Pseudomonas aeruginosa PAO1 quorum sensing assessed as suppression of protease production at 0.1 mM after 18 hrs by azocasein-based colorimetric method.
Assay [13] relates to Pseudomonas aeruginosa PAO1. As to the kind of experiment: Inhibition of Pseudomonas aeruginosa PAO1 quorum sensing assessed as suppression of protease production at 1 mM after 18 hrs by azocasein-based colorimetric method.
Assay [14] has as its system Pseudomonas aeruginosa. The assay is described as follows: Growth inhibition of Pseudomonas aeruginosa PAO1 at 10 mM after 25 hrs. Format: functional, organism-based.
Assay [15] has as its system Pseudomonas aeruginosa PAO1. The assay is described as follows: Inhibition of Pseudomonas aeruginosa PAO1 quorum sensing assessed as inhibition of pycocyanin production at 10 mM after 18 hrs.
Assay [16] relates to Pseudomonas aeruginosa PAO1. As to the kind of experiment: Inhibition of Pseudomonas aeruginosa PAO1 quorum sensing assessed as suppression of protease production at 10 mM after 18 hrs by azocasein-based colorimetric method.
Assay [17] concerns Pseudomonas aeruginosa. The assay is described as follows: Growth inhibition of Pseudomonas aeruginosa PAO1 at 1 mM after 25 hrs. Format: functional, organism-based.
In assay [18] the test system is Pseudomonas aeruginosa. The assay is described as follows: Growth inhibition of Pseudomonas aeruginosa PAO1 assessed as population density at 1 mM after 15 hrs by atomic force microscopy. It counts as functional, organism-based.
Assay [19] deals with Pseudomonas aeruginosa. The assay is described as follows: Inhibition of Pseudomonas aeruginosa PAO1 biofilm formation cultivated on respiratory tack suction tube at 1 mM after 3 days by scanning electron microscopy. Format: functional, organism-based.
Assay [20] concerns Pseudomonas aeruginosa. The assay is described as follows: Inhibition of Pseudomonas aeruginosa PAO1 biofilm formation cultivated on respiratory tack suction tube at 1 mM after 7 days by scanning electron microscopy. Format: functional, organism-based.
Assay [21] relates to Pseudomonas aeruginosa. As to the kind of experiment: Growth inhibition of Pseudomonas aeruginosa PAO1 assessed as survival rate at 538 ug/mL after 20 hrs. It counts as functional. The settings on record: PAO1, 20 h.

Regarding `O=C(O)c1cn(C2CC2)c2cc(N3CCNCC3)c(F)cc2c1=O` [CIPROFLOXACIN], in assay [1], the survival at 0.017 µg/mL turned out to be 85%.
Take `CC[C@H]1OC(=O)[C@H](C)[C@@H](O[C@H]2C[C@@](C)(OC)[C@@H](O)[C@H](C)O2)[C@H](C)[C@@H](O[C@@H]2O[C@H](C)C[C@H](N(C)C)[C@H]2O)[C@](C)(O)C[C@@H](C)C(=O)[C@H](C)[C@@H](O)[C@]1(C)O` [ERYTHROMYCIN]: the survival at 3.75 µg/mL in assay [2] worked out at 93.5%.
For `C=C1CC[C@@H]2[C@](C)(CO)[C@H](O)CC[C@@]2(C)[C@@H]1C/C=C1/C(=O)OC[C@H]1OC(=O)CNC(=O)OC(C)(C)C`, the “diameter of the inhibition zone (DIZ)” value in assay [3] is less than 4 mm; in assay [4], less than 4 mm; in [5], less than 4 mm; in assay [7], 10.2 mm; in [8] it was 8.4 mm; in assay [9] it was 7.6 mm. Also, the outcome in assay [6] was inactive. Moreover, the result in assay [10], in assay [11], in assay [12] and in assay [13] was Active.
With `C=C1CC[C@@H]2[C@](C)(CO)[C@H](O)CC[C@@]2(C)[C@@H]1CC(C1=CCOC1=O)S(=O)(=O)[O-].[Na+]` (stereo not given in full), the “diameter of the inhibition zone (DIZ)” value in assay [3], in [4], in [5] and in assay [7] was less than 4 mm in each case. Also, the result in assay [6], in assay [14] and in assay [10] was inactive. For the same compound, the outcome in assay [15], in [12] and in assay [16] was Active.
With `C=C1CC[C@@H]2[C@](C)(CO)[C@H](O)CC[C@@]2(C)[C@@H]1C/C=C1/C(=O)OC[C@H]1OC(=O)/C=C/c1ccc([N+](=O)[O-])cc1`, the “diameter of the inhibition zone (DIZ)” value in [3] was less than 4 mm; in assay [4], less than 4 mm; in assay [5] it was less than 4 mm; in assay [7], 8.3 mm; in [8], 8.1 mm; in assay [9] it was 6.4 mm. Also, the result in [6] was inactive. Further, the outcome in assay [10], in assay [11], in assay [12] and in [13] was Active.
With `C=C1CC[C@@H]2[C@](C)(CO)[C@H](O)CC[C@@]2(C)[C@@H]1C/C=C1/C(=O)OC[C@H]1OC(=O)CN.Cl`, the “diameter of the inhibition zone (DIZ)” value is on record as less than 4 mm in assay [3]; less than 4 mm in assay [4]; less than 4 mm in assay [5]; 9.3 mm in [7]; 8.7 mm in [8]; 5.2 mm in assay [9]. In addition, the result in assay [6], in assay [19] and in assay [20] was inactive. Besides, the outcome in assay [17], in assay [10], in assay [11], in assay [12], in assay [13] and in [18] was Active.
On to `C=C1CC[C@@H]2[C@](C)(CO)[C@H](O)CC[C@@]2(C)[C@@H]1C/C=C1/C(=O)OC[C@H]1O` [ANDROGRAPHOLIDE], for which the “diameter of the inhibition zone (DIZ)” value in assay [3], in assay [4], in assay [5] and in assay [7] was less than 4 mm throughout. In addition, the result in assay [17], in [12] and in [13] was Active. Also, the outcome in assay [18], in assay [19] and in assay [20] was inactive.
As to `C=C1CC[C@@H]2[C@](C)(CO)[C@H](O)CC[C@@]2(C)[C@@H]1C/C=C1/C(=O)OC[C@H]1OC(=O)CCCCC1CCSS1` (stereo not given in full), the “diameter of the inhibition zone (DIZ)” value is given as less than 4 mm in assay [3]; less than 4 mm in [4]; less than 4 mm in assay [5]; 4.9 mm in assay [7]; 6.9 mm in assay [8]; 4.1 mm in assay [9]. The result in assay [6] was inactive. The outcome in assay [17], in assay [10], in [11], in assay [12], in assay [13] and in [18] was Active. For the same compound, the outcome in assay [19] and in [20] was Active. The survival at 538 µg/mL in assay [21] turned out to be 84%.

Values taken from ChEMBL document CHEMBL1152491, “Synthesis and evaluation of antibacterial activities of andrographolide analogues” (2009).
